Earlier results, collected in patent US9014457B2, “Quantifying cell death” (UCL Business PLC, priority 2009, dated 2015).

Tested on: neuronal cells
Conditions: cited from earlier work

Question: For `CCCCCCCCCCCCCCCCCCN1C(=CC=CC2=[N+](CCCCCCCCCCCCCCCCCC)c3ccccc3C2(C)C)C(C)(C)c2ccccc21.[O-][Cl+3]([O-])([O-])[O-]` [DiI, 1,1′-dioctadecyl-3,3,3′,3′-tetramethylindocarbocyanine perchlorate], which “cell viability, development or basic cellular physiological properties” value is on record?
Answer: The value was “does not affect”.
